Experimental data: PubChem BioAssay (NCI)
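Where inhibition never reached the appropriate level, the endpoint shown equals the highest concentration tested. Otherwise, values were interpolated linearly from a five-concentration, 48-hour dose response in 96-well plates. TGI: total growth inhibition.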

Experiments:
Test in all cases: growth of human tumour cells (NCI), 48 h
[1] = tested on: DLD-1 colon
[2] = tested on: NCI-H460 lung
[3] = tested on: MOLT-4 leukemia
[4] = tested on: UACC-62 melanoma
[5] = tested on: SN12C renal
[6] = tested on: SNB-19 CNS
[7] = tested on: ACHN renal
[8] = tested on: SNB-78 CNS
[9] = tested on: NCI-H226 lung
[10] = tested on: SW-620 colon
[11] = tested on: SK-MEL-5 melanoma
[12] = tested on: SF-268 CNS
[13] = tested on: LXFL 529 NSCLC
[14] = tested on: CAKI-1 renal
[15] = tested on: DMS 273 small cell lung
[16] = tested on: LOX IMVI melanoma
[17] = tested on: OVCAR-5 ovarian
[18] = tested on: KM12 colon
[19] = tested on: HCT-15 colon
[20] = tested on: COLO 205 colon
[21] = tested on: SF-539 CNS
[22] = tested on: OVCAR-8 ovarian
[23] = tested on: NCI-H23 lung
[24] = tested on: HOP-62 NSCLC
[25] = tested on: UO-31 renal
[26] = tested on: 786-0 renal
[27] = tested on: OVCAR-4 ovarian
[28] = tested on: SK-MEL-2 melanoma
[29] = tested on: HCT-116 colon
[30] = tested on: SF-295 CNS
[31] = tested on: CCRF-CEM leukemia
[32] = tested on: SK-OV-3 ovarian
[33] = tested on: SR leukemia
[34] = tested on: A549 NSCLC
[35] = tested on: UACC-257 melanoma
[36] = tested on: IGROV1 ovarian
[37] = tested on: HOP-92 NSCLC
[38] = tested on: MALME-3M melanoma
[39] = tested on: M14 melanoma
[40] = tested on: HCC-2998 colon
[41] = tested on: OVCAR-3 ovarian
[42] = tested on: KM20L2 colon
[43] = tested on: NCI-H522 lung
[44] = tested on: T-47D breast
[45] = tested on: A498 renal
[46] = tested on: MCF7 breast
[47] = tested on: HOP-18 NSCLC
[48] = tested on: HL-60(TB) leukemia
[49] = tested on: DMS 114 small cell lung
[50] = tested on: U251 CNS
[51] = tested on: RXF 393 renal
[52] = tested on: BT-549 breast
[53] = tested on: TK-10 renal
[54] = tested on: MDA-N
[55] = tested on: HT29 colon
[56] = tested on: NCI/ADR-RES ovarian
[57] = tested on: EKVX NSCLC
[58] = tested on: MDA-MB-435
[59] = tested on: SNB-75 CNS
[60] = tested on: MDA-MB-231 breast
[61] = tested on: RPMI-8226 leukemia
[62] = tested on: M19-MEL melanoma
[63] = tested on: K-562 leukemia
[64] = tested on: SK-MEL-28 melanoma
[65] = tested on: PC-3 prostate
[66] = tested on: HS 578T breast
[67] = tested on: DU-145 prostate

For `C=C1C2C[C@@H]3OC4CC5O[C@]6(CC5OC4C(C)C3OC(=O)CC3CC[C@@H]4OC5C7OC8C[C@](CCC9CC(=C)[C@H](CCC(C[C@H]1C)O2)O9)(OC7C4O3)O[C@@H]85)C[C@@H]1O[C@@]2(CC(C)[C@@H]3OC(CC(=O)CCO)C(O)C[C@@H]3O2)CC(C)[C@@H]1O6` (some centres undefined), the TGI [1] was 1.24 µM, the TGI [2] was 1.33 µM and the TGI [3] was 2.19 µM. For the same compound, the TGI [4] was 0.181 µM, the TGI [5] was 0.206 µM and the TGI [6] was 0.816 µM. For the same compound, the TGI [7] was 1.71 µM, the TGI [8] was 1.98 µM and the TGI [9] was under 0.001 µM. The TGI [10] was 1.32 µM, the TGI [11] was 0.00259 µM and the TGI [12] was 1.61 µM. The TGI [13] was 1.19 µM, the TGI [14] was 0.877 µM and the TGI [15] was under 0.001 µM. The TGI [16] was 0.119 µM, the TGI [17] was 0.562 µM and the TGI [18] was 0.00228 µM. It also gave a TGI [19] of 0.00109 µM, a TGI [20] of under 0.001 µM and a TGI [21] of under 0.001 µM. The TGI [22] was 0.0172 µM, the TGI [23] was under 0.001 µM and the TGI [24] was 0.0034 µM. It also gave a TGI [25] of 1.17 µM, a TGI [26] of 1.09 µM and a TGI [27] of under 0.001 µM. It also gave a TGI [28] of under 0.001 µM, a TGI [29] of 0.00111 µM and a TGI [30] of under 0.001 µM. It also gave a TGI [31] of 1.8 µM, a TGI [32] of 0.905 µM and a TGI [33] of 1.24 µM. It also gave a TGI [34] of 1.28 µM, a TGI [35] of 1.52 µM and a TGI [36] of 1.37 µM. It also gave a TGI [37] of 0.0017 µM, a TGI [38] of 0.189 µM and a TGI [39] of 0.17 µM. It also gave a TGI [40] of under 0.001 µM, a TGI [41] of under 0.001 µM and a TGI [42] of under 0.001 µM. It also gave a TGI [43] of under 0.001 µM.

`CN(C)C(=S)/N=c1\ssc(=S)n1Cc1cccs1` was tested, and the TGI [1] was over 100 µM, the TGI [2] was over 89.7 µM and the TGI [3] was over 100 µM. For the same compound, the TGI [4] was over 56.7 µM, the TGI [5] was over 100 µM and the TGI [44] was over 100 µM. For the same compound, the TGI [45] was over 100 µM, the TGI [46] was over 30.4 µM and the TGI [6] was over 90.9 µM. For the same compound, the TGI [7] was over 100 µM, the TGI [47] was over 100 µM and the TGI [48] was 13.9 µM. The TGI [49] was 5.6 µM, the TGI [50] was 69.9 µM and the TGI [51] was 23.9 µM. The TGI [8] was over 100 µM, the TGI [9] was over 100 µM and the TGI [10] was over 100 µM. For the same compound, the TGI [11] was over 16.1 µM, the TGI [52] was over 100 µM and the TGI [12] was over 100 µM. The TGI [53] was over 81.6 µM, the TGI [13] was over 100 µM and the TGI [54] was 2.85 µM. The TGI [14] was over 91.4 µM, the TGI [16] was over 100 µM and the TGI [17] was over 100 µM. It also gave a TGI [55] of over 100 µM, a TGI [18] of over 100 µM and a TGI [19] of over 100 µM. For the same compound, the TGI [20] was 6.41 µM, the TGI [21] was 15.1 µM and the TGI [56] was 5.1 µM. For the same compound, the TGI [22] was 52.9 µM, the TGI [23] was over 100 µM and the TGI [24] was 81.3 µM. It also gave a TGI [25] of over 100 µM, a TGI [57] of over 94.6 µM and a TGI [26] of 52.5 µM. For the same compound, the TGI [58] was 2.71 µM, the TGI [59] was 15.2 µM and the TGI [27] was over 91.7 µM. For the same compound, the TGI [28] was 25.7 µM, the TGI [60] was over 100 µM and the TGI [29] was over 69.6 µM. For the same compound, the TGI [30] was 21.8 µM, the TGI [31] was over 60.2 µM and the TGI [32] was over 90 µM. It also gave a TGI [61] of over 100 µM, a TGI [33] of over 100 µM and a TGI [34] of over 91.4 µM. The TGI [62] was over 100 µM, the TGI [35] was over 75.4 µM and the TGI [36] was over 100 µM. The TGI [37] was over 89.1 µM, the TGI [38] was 74.7 µM and the TGI [63] was over 55.8 µM. For the same compound, the TGI [39] was over 100 µM, the TGI [40] was over 100 µM and the TGI [41] was 6.57 µM. For the same compound, the TGI [64] was over 100 µM, the TGI [42] was 3.57 µM and the TGI [43] was 9.6 µM. It also gave a TGI [65] of over 100 µM, a TGI [66] of 5.17 µM and a TGI [67] of over 100 µM.
